# Test results from patent publication EP4548971A1, “1,4-BENZOTHIAZEPINES AND RELATED COMPOUNDS WITH CYCLOPROPANOL GROUPS AS MULTI-TARGETED DRUGS” (Georg-August-Universität Göttingen Stiftung Öffentlichen …, priority 2023, dated 2025).
# Entries after “also recorded” stand apart in the source; their conditions may differ.
# Experiments:
# [1] = Membrane permeability, PermeaPad plate (cell-free transport model); assay type: in vitro ADME
# Protocol: Membrane permeability was assessed using PermeaPad® Plate according to the manufacturing procedure (innoME GmbH, Espelkamp, Germany). Briefly, 200 µl water was added into acceptor plate. 200 µl of 100 - 500 µM test compound in water was added directly to the well membranes of the donor plate. The donor plate contains a biomimetic membrane for simulating passive mass transfer through different barriers in the body. Then the donor plate was placed into the acceptor plate wells and incubated at room temperature for 24 hours in dark. To determine peak absorbance of test compounds, absorbance spectra of acceptor solutions and initial solutions for each test compound were read out. The Permeability Rate (Pe) was calculated using the formula: Pe = C × −ln(1−(ODA)/(ODE)) cm/s, [formula]
# where ODA is the absorbance of acceptor solution, ODE is the absorbance of the standard solution; if the compound is able to permeabilize the membrane and fully reach equilibrium, 250 µM will be the final concentration of solution in the donor and acceptor wells. The coefficient C was calculated using the formula: C = (VD × VA)/((VD+VA) × Area × time), [formula] where VA - acceptor volume (cm^3), VD - donor volume (cm^3), membrane area 0.24 cm^2, time is 86,400 s.
# (§1) The membrane permeability of the derivatives was determined using cell-free transport models (PermeaPad®, innoME GmbH), and permeability rates (Pe), which are a measure of how fast a compound can cross a membrane, were established (Table 1).
# HL-1 cardiac cells = assay: CytoTox-Glo cytotoxicity assay (cell viability); assay type: cell-based; details: CytoTox-Glo assay in 100 µM solutions after 24 h incubation
# Protocol: Cell viability was assessed using CytoTox-Glo™ Cytotoxicity Assay according to the manufacturing procedure (Promega GmbH). Briefly, HL-1 cardiac cells were cultivated for 24 h in black-walled, clear-bottom 96-well micro-plates (Corning) covered with fibronectin in DMEM, containing different concentrations of the tested compound (10,000 cells/well). Luminescence of a luminogenic peptide substrate was measured before and after addition of the lysis reagent (digitonin). The viable cell contribution was determined by a subtractive method. 0.1% DMSO treated cell were taken as a control.
# as §1
# SERCA2a = target: T1, SERCA2a (Mus musculus, UniProt O55143); assay: Caffeine-induced Ca2+ release assay on HL-1 cells; assay type: cell-based; parameters: key to SERCA2a HL-1 effect class: +++: a strong effect, comparable to or greater than that of a known compounds at a given concentration (25 µM in RyR2 R-CEPIA1er assay, 10 µM in caffeine assay and on microsomal membrane vesicles); ++: moderate effect; +: observable effect; -: no effect
# T1 construct: host or cells: HL-1 cardiac cells
# T1 sequence (O55143 1-998 isoform O55143-2): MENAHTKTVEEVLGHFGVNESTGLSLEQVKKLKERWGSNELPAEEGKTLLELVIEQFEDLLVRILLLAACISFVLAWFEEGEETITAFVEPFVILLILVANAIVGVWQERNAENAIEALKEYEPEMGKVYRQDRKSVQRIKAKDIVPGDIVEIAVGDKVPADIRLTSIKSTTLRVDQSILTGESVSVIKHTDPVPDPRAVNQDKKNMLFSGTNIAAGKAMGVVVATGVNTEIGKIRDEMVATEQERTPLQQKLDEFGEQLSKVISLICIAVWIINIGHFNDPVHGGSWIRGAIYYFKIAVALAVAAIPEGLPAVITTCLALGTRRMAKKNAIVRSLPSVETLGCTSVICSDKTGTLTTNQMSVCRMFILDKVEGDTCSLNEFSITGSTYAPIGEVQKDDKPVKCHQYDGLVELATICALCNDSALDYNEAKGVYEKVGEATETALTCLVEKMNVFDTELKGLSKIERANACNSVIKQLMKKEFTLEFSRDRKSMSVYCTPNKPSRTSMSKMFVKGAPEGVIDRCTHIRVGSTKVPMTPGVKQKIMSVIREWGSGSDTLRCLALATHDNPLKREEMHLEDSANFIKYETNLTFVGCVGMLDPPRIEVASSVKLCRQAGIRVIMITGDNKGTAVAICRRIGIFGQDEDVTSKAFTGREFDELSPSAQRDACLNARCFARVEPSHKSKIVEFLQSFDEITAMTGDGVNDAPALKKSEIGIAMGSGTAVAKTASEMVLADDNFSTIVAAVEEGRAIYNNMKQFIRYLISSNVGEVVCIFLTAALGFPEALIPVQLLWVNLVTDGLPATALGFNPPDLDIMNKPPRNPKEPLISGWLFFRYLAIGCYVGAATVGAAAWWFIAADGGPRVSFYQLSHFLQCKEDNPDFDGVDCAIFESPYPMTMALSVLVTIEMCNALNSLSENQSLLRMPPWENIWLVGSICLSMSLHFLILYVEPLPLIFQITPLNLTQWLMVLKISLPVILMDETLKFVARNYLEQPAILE
# Protocol: HL-1 cardiac cells (SCC065, Merck KGaA, Darmstadt, Germany) were cultivated in Claycomb's Medium (51800C, Merck KGaA, Darmstadt, Germany), supplemented with Glutamax, 10% fetal bovine serum, 0.9% Penicillin/Streptomycin and 0.1 mM Noradrenaline (Merck KGaA, Darmstadt, Germany) on fibronectin/gelatin (Merck KGaA, Darmstadt, Germany) coated culture bottles or plates two days before plating.
# HL-1 cardiac cells (50000 per well) were cultivated for 24 h in black-walled, clear-bottom 96-well micro-plates (Corning, Amsterdam, The Netherlands) covered with fibronectin/gelatin (Merck KGaA, Darmstadt, Germany) in a humidified incubator at 37 °C and 5% CO2.
# Changes in Ca^2+ concentration were measured on a multiwell plate reader TECAN Spark 20M using FLIPR 6 Calcium Assay Kit from Molecular Devices (Molecular Devices LLC, München, Germany) at 37 °C. The 1000 × stock solutions of the test compounds were prepared in DMSO. 100 µl solution of test compound in Tyrode's solution containing FLIPR Calcium 6 dye was incubated for 2 hours at 37°C and 5% COz in a humidified incubator. The time courses were recorded in each well. Fluorescence was evoked at 485 nm excitation wavelength and read out in a bottom-read mode at 525 nm. Data were recorded every 2 s, exposure - 20 flashes, excitation bandwidth - 10 nm, emission bandwidth - 15 nm. To initiate Ca^2+ influx, 25 µl of 50 mM caffeine solution in Tyrode's solution containing 2 mM CaCl2 was injected in each well (speed 100 µl/s) at 10 s time point, resulting in 10 mM final concentration in the well. The differences between the caffeine induced peak minus basal fluorescence, ΔFCaff, were taken for the analysis. The Tyrode's solution + 0.1 v/v% DMSO was used as a control. The dose response curves were calculated using the software package GraphPad Prism version 8.3.1. All data are presented as mean ± S.D. from 8 independent experiments. Y=Bottom + (Top-Bottom)/(1+10^((LogEC50-X)*HillSlope)) was used where HillSlope describes the steepness of the curve, Top and Bottom are plateaus in the units of the Y axis.
# The SERCA2a activity of the compounds was confirmed in two orthogonal biochemical assays: caffeine-induced Ca^2+ release assay and nicotinamide adenine dinucleotide (NADH) assay on microsomal membrane vesicles from mouse heart ventricles (mouse SER) and HEK-293T cells (HEK-293 ER). The effect of caffeine-induced Ca^2+ release in HL-1 cells, immortalized mouse cardiomyocytes, treated with the cytosolic Ca^2+ indicator FLIPR Calcium 6 (Molecular Devices) was investigated.
# When caffeine binds to the RyR channel, it interacts with specific amino acids of the protein, and this interaction causes conformational changes in the protein's structure [A. des Georges, O. B. Clarke, R. Zalk, Q. Yuan, K. J. Condon, R. A. Grassucci, W. A. Hendrickson, A. R. Marks, J. Frank, Structural Basis for Gating and Activation of RyR1. Cell 2016, 167, 145 - 157.e17]. This opens the RyR2 channel pore, enabling the mass release of calcium ions from the SER Ca^2+ store.
compound,measurement,setting,value
"COc1ccc2c(c1)CN(C)CCS2 [Compound S107, reference compound]",Pe rating in words (low / medium / high; poor),[1],medium
same,Pe,"[1]; permeability rate, room temperature, 24 hours",1.2 10^-6 cm/s
same,Viability,HL-1 cardiac cells,98%
same,SERCA2a HL-1 effect class,SERCA2a; 10 µM in caffeine assay,-
same,"effect in caffeine-induced Ca^2+ release assay, in words","SERCA2a; HL-1 cells incubated 2 h with compound, 10 mM caffeine",no concentration dependent effect; also recorded: didn't show any effects on SR Ca^2+ content
